Test results as given in patent US20070112056A1, “Stable modifications of tegaserod hydrogen maleate” (priority 2003, published 2007).
Blank lines part the entries; values can stand above or below the compound they belong to.

What was measured:
Type in all cases: physicochemical
[1] = Stability of the crystal form when exposed to heat (DSC thermogram)
Experimental: Characteristic for the modification A is the thermogram in differential scanning calorimetry (DSC). It has an endothermic melting peak at about 190° C. The melting enthalpy of the endothermic signal Is 130 J/g±5 J/g. The measurement Is carried out on a Perkin Elmer DSC 7 in a crimped pan with a heating rate of 10 K/minute., The typical sample quantity is about 2 mg. As a typical distinguishing feature compared with the modification B and the acetone solvate, ethanol solvate, the thermogram of the modification A has no further thermal signal (see Table 1a below):
It has an endothermic peak in addition to the one at about 190° C., at 97° C. and melting/crystallization signals at about 181° C. […] The measurement is done as described above.

[2] = Stability of the crystal form in the presence of water
[3] = Conversion between crystal forms / thermodynamic stability
Solubility = assay: Solubility
[4] = compared to modification B and the ethanol, acetone solvate

- stability when exposed to heat [1, 4]: more stable when exposed to heat
- stability in the presence of water [2, 4]: more stable In the presence of water
SMILES: CCCCCNC(=N)N/N=C/c1c[nH]c2ccc(OC)cc12.O=C(O)/C=C\C(=O)O [modification A, modification A of the hydrogen maleate salt of 3-(5-methoxy-1H-indol-3-yl-methylene)-N-pentylcarbazimidamide]
- thermodynamic stability ([3]; relative to modification B): thermodynamically more stable than modification B

- conversion of crystal form when heating is applied ([1]; DSC, heating rate 10 K/minute): converts into modification A
SMILES: CCCCCNC(=N)N/N=C/c1c[nH]c2ccc(OC)cc12.O=C(O)/C=C\C(=O)O [modification B]
- conversion of crystal form ([3]; under certain conditions, e.g. heat or water containing organic solvents): completely or partly be converted into modification A

- conversion of crystal form by equilibration with water ([2]; equilibration with water): can be transformed into modification A
SMILES: CCCCCNC(=N)N/N=C/c1c[nH]c2ccc(OC)cc12.O=C(O)/C=C\C(=O)O [solvate with acetone]

- solubility (Solubility): poor
SMILES: CCCCCNC(=N)N/N=C/c1c[nH]c2ccc(OC)cc12.O=C(O)/C=C\C(=O)O [tegaserod hydrogen maleate, 3-(5-methox-1H-indol-3-yl-methylene)-N-pentylcarbazimidamide hydrogen maleate]
